Test results taken from paper PMC7530392, “A label‐free impedance assay in endothelial cells differentiates the activation and desensitization properties of clinical S1P1 agonists” (FEBS Open Bio, 2020).
Entries after “also recorded” stand apart in the source; their conditions may differ. Read-outs that look alike come from different tables or passages of the source.

Columns and labels:
[1] = molecular target: T1, recombinant human GRK2 (Homo sapiens, UniProt P25098); test: 33P-ATP flash plate kinase assay; type: biochemical; conditions: 3 µM ATP, biotin-[…] substrate
T1 construct: purchased Thermo Fisher PR4694A
T1 sequence (P25098 1-689): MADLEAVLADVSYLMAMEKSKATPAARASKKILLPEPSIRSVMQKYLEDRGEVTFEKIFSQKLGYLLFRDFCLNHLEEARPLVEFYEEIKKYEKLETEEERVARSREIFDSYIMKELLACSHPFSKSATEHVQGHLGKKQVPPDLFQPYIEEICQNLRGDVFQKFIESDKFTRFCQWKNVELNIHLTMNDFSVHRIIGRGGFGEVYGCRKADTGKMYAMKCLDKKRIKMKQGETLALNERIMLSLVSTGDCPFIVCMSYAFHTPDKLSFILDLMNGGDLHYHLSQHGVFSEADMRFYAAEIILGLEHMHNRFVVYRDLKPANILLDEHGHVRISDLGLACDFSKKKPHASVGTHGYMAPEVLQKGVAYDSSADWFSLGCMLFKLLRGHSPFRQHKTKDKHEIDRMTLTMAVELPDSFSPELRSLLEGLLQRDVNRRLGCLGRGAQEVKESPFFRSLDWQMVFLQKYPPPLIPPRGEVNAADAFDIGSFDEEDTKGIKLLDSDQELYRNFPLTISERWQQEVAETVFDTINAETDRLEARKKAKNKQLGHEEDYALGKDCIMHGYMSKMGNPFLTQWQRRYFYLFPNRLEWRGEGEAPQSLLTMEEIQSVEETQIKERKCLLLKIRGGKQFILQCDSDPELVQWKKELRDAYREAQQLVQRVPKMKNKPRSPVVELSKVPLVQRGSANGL

[2] = tested on: human S1P1; test: β-arrestin recruitment assay in PathHunter cells overexpressing human S1P1; type: cell-based; conditions: read-out: IC50 inhibition of β-arrestin recruitment
Method: The cellular potency of the GRK2 inhibitor was determined using a β‐arrestin recruitment assay in PathHunter® cells overexpressing human S1P1 (Eurofins DiscoverX Corporation, San Diego, CA, USA; catalogue number 93‐0207C2) as described. The mean IC50 from at least 3 separate experiments was reported.

[3] = molecular target: T2, S1P1 (Homo sapiens, UniProt P21453); test: Label-free impedance assay in HUVEC, first stimulation (early and late BNCI response); type: cell-based; conditions: for Late phase Max: determined manually for bell-shaped responses; for Early phase Max: BNCI curve maximum; for Early phase Max / Early phase Min / Early phase Hill slope: early response; for Early phase Min: BNCI curve minimum; for Emax: read-out: Maximum BNCI in late response as % of E max in early response; for EC50: first stimulation, geometric mean; for Impedance profile in the presence of the GRK2 inhibitor: 10 µM GRK2 inhibitor, over 60 min
T2 construct: host or cells: HUVEC (pooled donors)
T2 sequence (P21453 whole entry): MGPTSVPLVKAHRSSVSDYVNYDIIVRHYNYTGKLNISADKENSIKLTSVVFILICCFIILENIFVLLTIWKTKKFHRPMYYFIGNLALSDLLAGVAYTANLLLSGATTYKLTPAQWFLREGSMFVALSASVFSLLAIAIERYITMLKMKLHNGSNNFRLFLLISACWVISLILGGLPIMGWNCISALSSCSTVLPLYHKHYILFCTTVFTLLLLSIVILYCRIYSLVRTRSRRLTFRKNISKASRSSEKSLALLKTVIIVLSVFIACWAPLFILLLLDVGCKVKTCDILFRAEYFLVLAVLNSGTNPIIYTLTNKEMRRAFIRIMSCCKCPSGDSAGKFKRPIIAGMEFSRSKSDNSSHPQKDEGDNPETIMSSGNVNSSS
Method: (§1) HUVECs from pooled donors (PromoCell GmbH, Heidelberg, Germany, C‐12203) were seeded at 10 000 cells per well, in complete medium (C2210, C39210) containing 2% fetal bovine serum (FBS), in 96‐well collagen‐I coated E‐plates. Cells were allowed to attach and proliferate for 6 h, followed by overnight serum starvation in medium containing 0.1% FBS. Electrical impedance was measured continuously with RTCA‐MP station (xCELLigence RTCA, ACEA‐Biosciences, San Diego, CA, USA), according to the manufacturer’s protocol, and expressed as baseline normalized cell index (BNCI) using RTCA2.0 software. Impedance measurements were analyzed for 60 min following addition of test compounds or DMSO control, and the early (peak response at 8–10 min) and late response (at 60 min) was used for further analysis. Cells were then washed in medium containing 0.1% FBS for 5.5 h. The effect of each test compound to desensitize the response to a second stimulation with the natural ligand S1P (80 nM) was measured in the same wells and expressed as the AUC0–60 min of the S1P‐induced BNCI response. […] The baseline for the BNCI calculation was the respective vehicle responses for the first (0.1% DMSO) and second stimulations (2.5 µg·mL^−1 BSA). When tested, 10 µM GRK2 inhibitor was pretreated with cells for 2 h prior to addition of test compounds and its effect on early and late responses measured as above. All experiments were repeated on at least 3 separate occasions.
Effective concentration corresponding to half of the difference between the maximum and minimum effect (EC50) of agonists was determined with SAS procedure NLIN in SAS system release 9.1 under UNIX via BIOSTAT@T‐SPEED‐LTS v2.0 internal software using the 4‐parameter logistical model.

[4] = molecular target: T2, S1P1; test: Desensitization of S1P-induced BNCI response in HUVEC (second stimulation with 80 nM S1P); type: cell-based; conditions: for Desensitization Max: S1P-induced BNCI response curve maximum; for Desensitization Max / Desensitization Min / Desensitization Hill slope: arithmetic mean; for Desensitization Min: S1P-induced BNCI response curve minimum; for IC50: absolute 50% reduction of control S1P (80 nM)-induced BNCI AUC0–60 min after 5.5 h wash, geometric mean, read-out: Desensitization IC50 [95% CI]
Method: as §1
The activation‐to‐desensitization ratio was expressed as IC50/EC50 for early phase. EC50, IC50, and activation‐to‐desensitization ratio were reported as geometric mean with 95% confidence intervals.

[5] = cited from earlier work
[6] = tested on: lymphocytes; conditions: approved dose in MS; no reference given; cited from earlier work
[7] = BNCI at 60 min, arithmetic mean
[8] = late (60 min) versus early phase
[9] = BNCI peak response at 8–10 min, read-out: Early phase EC50 [95% CI]

SMILES	Shape of concentration–effect relationship in the late response ([3]; BNCI at 60 min)	Late phase Max [3, 7]	Early phase Max ([3]; arithmetic mean)	Early phase Min ([3]; arithmetic mean)	Early phase Hill slope ([3]; arithmetic mean)	Emax [3, 8] [%]	Desensitization Max [4]	Desensitization Min [4]	Desensitization Hill slope [4]	Volume of distribution in human [5]	Lymphocyte reduction [6]	EC50 [3, 9] [nM]	IC50 [4] [nM]	Impedance profile in the presence of the GRK2 inhibitor [3]	further results
O=C(NCc1ccc2onc(NCc3ccccc3C(F)(F)F)c2c1)c1ccc2[nH]ncc2c1 [GRK2 inhibitor, 1H‐Indazole‐5‐carboxylic acid [3‐(2‐trifluoromethyl‐benzylamino)‐1,2‐benzisoxazol‐5‐ylmethyl]‐amide]	–	–	–	–	–	–	–	–	–	–	–	–	–	–	IC50 [1]: 44 nM; IC50 [2]: 1100 nM
CC(C)Oc1ccc(-c2nc(-c3cccc4c3CC[C@@H]4NCCO)no2)cc1C#N [Ozanimod, ozanimod]	bell‐shaped	0.234	0.461	0.188	1.1	51	91.5	−13.9	−1.5	5590 [5] L	55%	–	–	–	–
CCC/N=C1\S/C(=C\c2ccc(OC[C@H](O)CO)c(Cl)c2)C(=O)N1c1ccccc1C [Ponesimod, ponesimod]	bell‐shaped	0.468	0.582	0.175	1.2	81	79.3	−38.2	−0.9	160 [37] L	–	2.41	18.4	–	Activation-to-desensitization ratio [95% CI] ([4]; desensitization IC50 / early phase EC50, geometric mean): 7.66 (3.41–17.2); S1P-induced BNCI response after preincubation at the highest concentrations tested ([4]; second stimulation with S1P): fall below the baseline
Cc1cc(-c2nc3cnc(Oc4cccc(Cl)c4)nc3o2)cc(C)c1OCC(=O)O [SAR247799]	–	0.425	0.527	0.101	1.0	–	89.3	1.1	−1.9	7–23 [13] L	–	26.1	2980	sustained BNCI increase with no signal decline over 60 min	Late phase Hill slope [3, 7]: 0.7; Late phase Min [3, 7]: 0.045; EC50 ([3]; BNCI at 60 min, read-out: Late phase EC50 [95% CI]): 42.8 nM; Maximum BNCI in late response as % of E max in early response [3, 8]: 81%; Further increase of late response by presence of GRK inhibitor ([3]; late response, 10 µM GRK inhibitor pretreated 2 h): 2 fold
CCc1cc(/C(C)=N/OCc2ccc(C3CCCCC3)c(C(F)(F)F)c2)ccc1CN1CC(C(=O)O)C1 [Siponimod, siponimod]	bell‐shaped	0.150	0.440	0.012	0.7	34	96.8	−16.3	−1.0	–	70–80%	0.977	0.167	sustained BNCI increase with no signal decline over 60 min	Barrier effect in late response in the presence of the GRK inhibitor ([3]; 10 µM GRK inhibitor, same concentrations that gave negative BNCI without inhibitor): improved barrier integrity; Late response BNCI at highest concentrations (barrier effect) ([3]; 60 min, absence of GRK inhibitor): endothelial barrier disruption; also recorded: concentration‐dependent decrease to negative BNCI values
CCCCCCCCc1ccc(CCC(N)(CO)CO)cc1 [fingolimod]	–	–	–	–	–	–	–	–	–	–	70–80%	–	–	–	–
